ChEMBL document CHEMBL5236615, “Discovery of Novel N-Heterocyclic-Fused Deoxypodophyllotoxin Analogues as Tubulin Polymerization Inhibitors Targeting the Colchicine-Binding Site for Cancer Treatment” (J Med Chem, 2022)
Active and inactive are the calls of the source. The calls are words filed in the database; no cut-off is given here.

Key:
[1] = system: MCF7; assay: Induction of apoptosis in human MCF7 cells assessed as upregulation of p-Bim L protein expression at 5 to 20 nM in presence of roscovitine measured after 24 hrs by Western blot analysis; type: functional, cell-based; conditions: dose 5-20 nM
[2] = system: MCF7; assay: Induction of cell cycle arrest in human MCF7 cells assessed as CI-PARP at 5 to 20 nM in presence of roscovitine measured after 24 hrs by Western blot analysis; type: functional, cell-based; conditions: dose 5-20 nM
[3] = Cardiotoxicity in Sprague-Dawley rat assessed as PR interval at 10 to 60 mg/kg, iv measured upto 60 mins by electrocardiography; type: toxicity, organism-based; conditions: in vivo, 1 h, dose 10-60 mg/kg
[4] = Half life in Sprague-Dawley rat at 10 mg/kg, iv measured upto 8 hrs by LC/MS/MS analysis; type: ADME, organism-based; conditions: in vivo
[5] = MRT (0 to t) in Sprague-Dawley rat at 10 mg/kg, iv measured upto 8 hrs by LC/MS/MS analysis; type: ADME, organism-based; conditions: in vivo
[6] = Cmax in Sprague-Dawley rat at 10 mg/kg, iv measured upto 8 hrs by LC/MS/MS analysis; type: ADME, organism-based; parameters: dose 10 mg/kg, time < 8 hrs, route iv; conditions: in vivo

Compound: COc1c(Cl)cc([C@@H]2c3cc4c(cc3C[C@H]3C(=O)NC(=O)N23)OCCO4)cc1Cl
- Activity [1]: inactive
- Activity [2]: inactive
- Activity [3]: Non-Toxic
- t1/2 [4]: 1.59 h
- MRT last at 8 h [5]: 1.79 h
- Cmax [6]: 7291 ng/mL
